# Measured values: patent publication US7786129B2, “Piperazine derivatives of dialkyl oxindoles” (Egis Gyogyszergyar Nyrt, priority 2004, dated 2010)
# Counter-ions that a name gives are not always drawn.
row,SMILES,melting point [°C]
1,"CCC1(CCCCN2CCN(c3cccc(Cl)c3)CC2)C(=O)Nc2cc(F)ccc21 (centres unmarked) [Example 77, 3-{4-[4-(3-Chlorophenyl)-piperazin-1-yl]-butyl}-3-ethyl-6-fluoro-1,3-dihydro-2H-indol-2-one]",116 to 117
2,"CCC1(CCCCN2CCN(c3cccc(OC)c3)CC2)C(=O)Nc2ccccc21 (centres unmarked) [Example 91, 3-Ethyl-3-{4-[4-(3-methoxyphenyl)-piperazin-1-yl]-butyl}-1,3-dihydro-2H-indol-2-one]",123 to 125
3,"CCC1(CCCCN2CCN(c3ccccn3)CC2)C(=O)Nc2ccc(F)cc21 (centres unmarked) [Example 84, 3-Ethyl-5-fluoro-3-[4-(4-pyridin-2-yl-piperazin-1-yl)-butyl]-1,3-dihydro-2H-indol-2-one]",144 to 147
4,"CCC1(CCCCN2CCN(c3cccc(Cl)c3)CC2)C(=O)Nc2ccc(Cl)cc21 (centres unmarked) [Example 67, 5-Chloro-3-{4-[4-(3-chlorophenyl)-piperazin-1-yl]-butyl}-3-ethyl-1,3-dihydro-2H-indol-2-one]",139 to 142
5,"CCC1(CCCN2CCN(c3ccccn3)CC2)C(=O)Nc2ccccc21 (centres unmarked) [Example 58, 3-Ethyl-3-[3-(4-pyridin-2-yl-piperazin-1-yl)-propyl]-1,3-dihydro-2H-indol-2-one]",122 to 124
6,"CCC1(CCCCN2CCN(c3ccccc3Cl)CC2)C(=O)Nc2ccccc21 (centres unmarked) [Example 81, 3-{4-[4-(2-Chlorophenyl)-piperazin-1-yl]-butyl}-3-ethyl-1,3-dihydro-2H-indol-2-one]",145 to 148
7,"CCC1(CCCCN2CCN(c3cccc(Cl)c3)CC2)C(=O)Nc2ccccc21 (centres unmarked) (as salt: HCl) (hydrate or solvate) [Example 60, 3-{4-[4-(3-Chlorophenyl)-piperazin-1-yl]-butyl}-3-ethyl-1,3-dihydro-2H-indol-2-one-H2O—HCl-isopropanol (1:1:1:1)]",109 to 111
8,"CCC1(CCCCN2CCN(c3ccc(OC)cc3)CC2)C(=O)Nc2ccccc21 (centres unmarked) [Example 74, 3-Ethyl-3-{4-[4-(4-methoxyphenyl)-piperazin-1-yl]-butyl}-1,3-dihydro-2H-indol-2-one]",109 to 110
9,"CCC1(CCCCN2CCN(c3ccccc3)CC2)C(=O)Nc2ccccc21 (centres unmarked) (as salt: oxalate) [Example 68, 3-[4-(4-Phenylpiperazin-1-yl)-butyl]-3-ethyl-1,3-dihydro-2H-indol-2-one monooxalate]",121 to 123
10,"CCC1(CCCCN2CCN(c3cccc(Cl)c3)CC2)C(=O)Nc2ccc(Br)cc21 (centres unmarked) (as salt: oxalate) [Example 61, 5-Bromo-3-{4-[4-(3-chlorophenyl)-piperazin-1-yl]-butyl}-3-ethyl-1,3-dihydro-2H-indol-2-one monooxalate]",200 to 202
11,CCC1(CCCCCCN2CCN(c3cccc(Cl)c3)CC2)C(=O)Nc2ccccc21.Cl (centres unmarked),124 to 127
12,"CCC1(CCCCN2CCN(c3cccc(Cl)c3)CC2)C(=O)Nc2ccc(S(N)(=O)=O)cc21 (centres unmarked) (as salt: oxalate) [Example 72, 3-{4-[4-(3-Chlorophenyl)-piperazin-1-yl]-butyl}-3-ethyl-1,3-dihydro-2H-indol-2-one 5-sulfonamide monooxalate]",188 to 190

# The remaining lines, values ahead:
row,melting point [°C],SMILES
1,145 to 148,"CCC1(CCCCCN2CCN(c3ccc(Cl)cc3)CC2)C(=O)Nc2c(Cl)cc(Cl)cc21 (centres unmarked) [Example 125, 5,7-Dichloro-3-{5-[4-(4-chlorophenyl)-piperazin-1-yl]-pentyl}-3-ethyl-1,3-dihydro-2H-indol-2-one]"
2,186 to 188,"CCC1(CCCCN2CCN(c3ccc(Cl)cc3)CC2)C(=O)Nc2ccc(Cl)cc21 (centres unmarked) [Example 121, 5-chloro-3-{4-[4-(4-chlorophenyl)-piperazin-1-yl]-butyl}-3-ethyl-1,3-dihydro-indol-2-one]"
3,146 to 149,"CCC1(CCCCN2CCN(c3ccc(F)cc3)CC2)C(=O)Nc2ccc(C)cc21 (centres unmarked) [Example 113, 3-Ethyl-3-{4-[4-(4-fluorophenyl)-piperazin-1-yl]-butyl}-5-methyl-1,3-dihydro-2H-indol-2-one]"
4,204 to 206,"CCC1(CCCCN2CCN(c3ccc(Cl)c(C(F)(F)F)c3)CC2)C(=O)Nc2ccccc21 (centres unmarked) (as salt: hydrochloride) [Example 96, 3-{4-[4-(4-Chloro-3-trifluoromethyl-phenyl)-piperazin-1-yl]-butyl}-3-ethyl-1,3-dihydro-2H-indol-2-one monohydrochloride]"
5,168 to 170,"CC1(CCCCN2CCN(c3ccc(Cl)cc3)CC2)C(=O)Nc2c(Cl)cc(Cl)cc21 (centres unmarked) [Example 128, 5,7-dichloro-3-{4-[4-(4-chlorophenyl)-piperazin-1-yl]-butyl}-3-methyl-1,3-dihydro-2H-indol-2-one]"
6,127 to 128,"CCC1(CCCCCN2CCN(c3ccccn3)CC2)C(=O)Nc2ccccc21 (centres unmarked) [Example 93, 3-Ethyl-3-[5-(4-pyridin-2-yl-piperazin-1-yl)-pentyl]-1,3-dihydro-2H-indol-2-one]"
7,122 to 124,"CCC1(CCCCN2CCN(c3cc(Cl)cc(Cl)c3)CC2)C(=O)Nc2ccc(F)cc21 (centres unmarked) [Example 114, 3-{4-[4-(3,5-dichlorophenyl)-piperazine-1-yl]-butyl}-3-ethyl-5-fluoro-1,3-dihydro-2H-indol-2-one]"
8,142 to 143,"CCC1(CCCCCN2CCN(c3ccc(Cl)cc3)CC2)C(=O)Nc2ccccc21 (centres unmarked) [Example 123, 3-{5-[4-(4-chlorophenyl)-piperazin-1-yl]-pentyl}-3-ethyl-1,3-dihydro-2H-indol-2-one]"
9,194 to 197,"CCC1(CCCCN2CCN(c3ccc(Cl)cc3)CC2)C(=O)Nc2cc(F)c(Cl)cc21 (centres unmarked) [Example 122, 5-chloro-3-{4-[4-(4-chlorophenyl)-piperazin-1-yl]-butyl}-3-ethyl-6-fluoro-1,3-dihydro-2H-indol-2-one]"
10,103 to 106,"CCC1(CCCCN2CCN(c3ccc(C)c(Cl)c3)CC2)C(=O)Nc2ccccc21 (centres unmarked) [Example 99, 3-{4-[4-(3-Chloro-4-methylphenyl)-piperazin-1-yl]-butyl}-3-ethyl-1,3-dihydro-2H-indol-2-one]"
11,121 to 124,"CCC1(CCCCN2CCN(c3ccc(F)c(Cl)c3)CC2)C(=O)Nc2ccccc21 (centres unmarked) [Example 100, 3-{4-[4-(3-Chloro-4-fluorophenyl)-piperazin-1-yl]-butyl}-3-ethyl-1,3-dihydro-2H-indol-2-one]"
12,161 to 162,"CCC1(CCCCN2CCN(c3ccc(F)cc3)CC2)C(=O)Nc2c(Cl)cc(F)cc21 (centres unmarked) [Example 119, 7-chloro-3-ethyl-5-fluoro-3-{4-[4-(4-fluorophenyl)-piperazin-1-yl]-butyl}-1,3-dihydro-2H-indol-2-one]"
13,164 to 165,"CCC1(CCCCN2CCN(c3ccc(Cl)c(Cl)c3)CC2)C(=O)Nc2c(Cl)cc(Cl)cc21 (centres unmarked) [Example 124, 5,7-dichloro-3-{4-[4-(3,4-dichlorophenyl)-piperazin-1-yl]-butyl}-3-ethyl-1,3-dihydro-2H-indol-2-one]"
14,119 to 122,"CCC1(CCCCN2CCN(c3ccc(F)cc3)CC2)C(=O)Nc2ccc(F)cc21 (centres unmarked) [Example 111, 3-Ethyl-5-fluoro-3-{4-[4-(4-fluorophenyl)-piperazine-1-yl]-butyl}-1,3-dihydro-2H-indol-2-one]"
